Source: patent publication US20250034216A1, “STEREOSELECTIVE COVALENT LIGANDS FOR ONCOGENIC AND IMMUNOLOGICAL PROTEINS” (The Scripps Research Institute, priority 2021, published 2025)

Experiments:
SF3B1 (~150 kDa protein) = molecular target: T1, SF3B1 (~150 kDa protein) (Homo sapiens, UniProt O75533+Q7RTV0); assay: Gel-based ABPP for SF3B1 cysteine engagement; assay type: binding; details: 22Rv1 cells, 24 h pre-treatment (1 μM WX-02-23/WX-02-43, 10 nM pladienolide B)
T1 construct: Cysteine engagement data from 22Rv1 cells treated; endogenous in cells; host or cells: 22Rv1
T1 sequence (O75533 whole entry): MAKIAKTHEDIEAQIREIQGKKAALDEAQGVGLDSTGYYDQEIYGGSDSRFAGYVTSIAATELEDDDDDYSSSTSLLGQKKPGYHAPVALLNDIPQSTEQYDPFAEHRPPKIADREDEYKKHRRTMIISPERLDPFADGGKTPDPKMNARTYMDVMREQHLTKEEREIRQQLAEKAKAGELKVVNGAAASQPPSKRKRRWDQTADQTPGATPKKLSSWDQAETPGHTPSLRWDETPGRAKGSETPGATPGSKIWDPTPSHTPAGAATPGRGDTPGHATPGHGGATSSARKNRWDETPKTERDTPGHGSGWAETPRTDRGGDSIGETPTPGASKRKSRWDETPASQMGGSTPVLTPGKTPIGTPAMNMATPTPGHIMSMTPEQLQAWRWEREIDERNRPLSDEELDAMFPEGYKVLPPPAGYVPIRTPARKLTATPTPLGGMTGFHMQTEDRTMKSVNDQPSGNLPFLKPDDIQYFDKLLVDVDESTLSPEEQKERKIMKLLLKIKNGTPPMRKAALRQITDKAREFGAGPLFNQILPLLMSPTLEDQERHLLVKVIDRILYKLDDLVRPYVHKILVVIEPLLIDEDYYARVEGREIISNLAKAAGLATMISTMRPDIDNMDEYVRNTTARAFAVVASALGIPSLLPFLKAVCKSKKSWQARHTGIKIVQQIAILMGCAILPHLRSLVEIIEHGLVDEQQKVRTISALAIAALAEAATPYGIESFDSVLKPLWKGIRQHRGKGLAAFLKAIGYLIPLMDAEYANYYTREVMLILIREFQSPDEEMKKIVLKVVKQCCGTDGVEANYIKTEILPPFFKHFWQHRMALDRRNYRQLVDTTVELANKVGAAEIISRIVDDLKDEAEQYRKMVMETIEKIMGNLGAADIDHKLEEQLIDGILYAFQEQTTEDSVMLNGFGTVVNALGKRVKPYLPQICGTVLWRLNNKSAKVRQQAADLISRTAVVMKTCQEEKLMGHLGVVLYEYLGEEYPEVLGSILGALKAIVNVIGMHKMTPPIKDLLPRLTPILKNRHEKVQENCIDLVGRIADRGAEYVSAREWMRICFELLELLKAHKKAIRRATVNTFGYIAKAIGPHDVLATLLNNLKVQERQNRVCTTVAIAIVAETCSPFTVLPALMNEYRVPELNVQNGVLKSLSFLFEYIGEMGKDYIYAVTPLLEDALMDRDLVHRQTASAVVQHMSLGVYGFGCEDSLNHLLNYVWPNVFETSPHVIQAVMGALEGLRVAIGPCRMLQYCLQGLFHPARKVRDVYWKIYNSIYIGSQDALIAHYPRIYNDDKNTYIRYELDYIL
T1 sequence (Q7RTV0 whole entry): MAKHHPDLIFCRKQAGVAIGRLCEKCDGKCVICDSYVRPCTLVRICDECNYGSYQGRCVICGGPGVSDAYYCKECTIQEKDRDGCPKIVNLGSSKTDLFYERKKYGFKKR
T1 sequence (Q15393 whole entry partner): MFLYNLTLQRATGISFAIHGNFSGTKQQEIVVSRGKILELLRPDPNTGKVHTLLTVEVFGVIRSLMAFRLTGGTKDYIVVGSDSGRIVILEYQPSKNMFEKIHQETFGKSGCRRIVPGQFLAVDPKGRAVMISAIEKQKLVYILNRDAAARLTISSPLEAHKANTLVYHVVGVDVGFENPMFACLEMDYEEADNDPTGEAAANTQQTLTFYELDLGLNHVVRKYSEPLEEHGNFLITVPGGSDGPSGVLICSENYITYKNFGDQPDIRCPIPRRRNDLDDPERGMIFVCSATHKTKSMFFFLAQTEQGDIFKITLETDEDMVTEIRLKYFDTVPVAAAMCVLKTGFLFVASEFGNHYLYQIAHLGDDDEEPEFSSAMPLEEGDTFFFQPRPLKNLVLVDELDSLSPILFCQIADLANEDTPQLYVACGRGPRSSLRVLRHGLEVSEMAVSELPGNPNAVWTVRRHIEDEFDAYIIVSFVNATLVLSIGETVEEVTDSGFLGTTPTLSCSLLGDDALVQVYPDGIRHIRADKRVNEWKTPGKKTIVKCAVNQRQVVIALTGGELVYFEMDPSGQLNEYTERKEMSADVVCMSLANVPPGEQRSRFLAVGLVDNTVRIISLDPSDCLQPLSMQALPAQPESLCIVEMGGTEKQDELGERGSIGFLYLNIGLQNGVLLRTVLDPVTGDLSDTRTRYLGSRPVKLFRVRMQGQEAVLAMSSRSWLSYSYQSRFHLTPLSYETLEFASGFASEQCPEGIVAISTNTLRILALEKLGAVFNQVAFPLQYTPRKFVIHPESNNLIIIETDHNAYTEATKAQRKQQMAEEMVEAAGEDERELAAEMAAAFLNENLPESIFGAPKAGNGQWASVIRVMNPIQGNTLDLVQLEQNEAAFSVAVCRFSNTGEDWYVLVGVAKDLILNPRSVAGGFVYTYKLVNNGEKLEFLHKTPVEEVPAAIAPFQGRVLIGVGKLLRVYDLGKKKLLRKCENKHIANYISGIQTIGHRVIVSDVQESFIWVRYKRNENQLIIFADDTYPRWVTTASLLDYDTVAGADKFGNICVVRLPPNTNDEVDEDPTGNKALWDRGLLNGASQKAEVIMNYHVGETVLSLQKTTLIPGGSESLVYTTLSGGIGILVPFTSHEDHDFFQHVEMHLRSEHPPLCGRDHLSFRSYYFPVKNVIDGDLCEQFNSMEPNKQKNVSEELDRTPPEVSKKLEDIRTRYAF
T1 sequence (Q9BWJ5 whole entry partner): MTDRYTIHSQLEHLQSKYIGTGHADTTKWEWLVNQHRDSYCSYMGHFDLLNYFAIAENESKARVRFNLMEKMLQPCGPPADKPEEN
Procedure: 22Rv1 cells were treated with indicated compounds for 24 h, chased with click probe for 1 h in situ, harvested and lysed in PBS with protease inhibitors (cOmplete), and then normalized to 2.0 mg/mL. Reagents for the CuAAC click reaction were pre-mixed prior to addition to the samples (3 μL of click reaction mix for 25 μL of lysate). After 1 hour of click labeling, 4×SDS running buffer was added to samples, which were then analyzed by SDS-PAGE.

[1] = system: 20S core proteasomal complex; assay: SEC-MS elution profile; assay type: cell-based, human; details: 22Rv1 cells, 20 μM, 3 h
Procedure: Sample preparation: Cells (adherent: 15 cm dishes, suspension: 2 million cells/mL) were treated with electrophilic probes in situ for indicated times and concentrations (elaborated fragments: 20 μM, 3 h), washed with ice-cold PBS, and flash frozen in liquid nitrogen. Cell pellets were lysed by sonication (8 pulses, 40% power) in 600 μL ice-cold PBS supplemented with cOmplete protease inhibitors (1 tablet/10 mL of PBS), ultracentrifuged for 20 min at 100,000 g, then normalized to a standardized concentration (typically 1.5 to 2.5 mg/mL). Clarified lysate was injected into a Superdex 200 Increase 10/300 GL column attached to an AKTA pure FPLC system. Proteins were fractionated using an isocratic gradient (PBS) running at 0.5 mL/min into 5 fractions 2 mL wide, beginning at 8 mL and ending at 18 mL. Eluate was collected into 15 mL tubes containing 12 mL of acetone at 4C. […]
Data processing: Fractional distributions for each peptide-spectra match with a total TMT reporter ion intensity were calculated by dividing the reporter ion intensity for each TMT channel by the summed intensity across the 5 TMT channels corresponding to a single treatment condition (Equation 1). […] Euclidean distances (SE shift scores, Equation 2) were calculated using the average elution profile for each protein across replicates, combined by treatment condition and cell line. […]

blockade of WX-01-10 labeling of the 150 kDa protein (SF3B1 (~150 kDa protein)) | SMILES | SEC migration of 20S core proteasomal complex subunits [1]
blocked | C=CC(=O)N1[C@H](c2ccc3c(c2)OCO3)c2[nH]c3ccccc3c2C[C@H]1C(=O)N1CCOCC1 [WX-02-23, 1-((1R,3S)-1-(benzo[d][1,3]dioxol-S-yl)-3-(morpholine-4-carbonyl)-1,3,4,9-tetrahydro-2H-pyrido [3,4-b]indol-2-yl)prop-2-en-1-one] | 
 | C=CC(=O)N1C[C@H](c2ccc(Br)cc2)[C@@H]1C(=O)Nc1cccc2cccnc12 [MY-1B, (2R,3S)-1-acryloyl-3-(4-bromophenyl)-N-(quinolin-8-yl)azetidine-2-carboxamide] | unaffected
